Read-outs that look alike come from different tables or passages of the source.
Key:
[1] = tested on: BACE1 activity in SH-SY5YAPP695Wt cells; assay: SH-SY5YAPP695Wt whole cell assay (Abeta 1-40 / 1-42 ELISA); assay type: cell-based; conditions: Homo sapiens, Mean ± SEM, n = 4, 24 hours incubation
Protocol: (§1) To assess selectivity of BACE1 over BACE2, the test compound is evaluated in FRET-based enzymatic assays using specific substrates for BACE1 and BACE2 as described below. For in vitro enzymatic and cellular assays, the test compound is prepared in DMSO to make up a 10 mM stock solution. The stock solution is serially diluted in DMSO to obtain a ten-point dilution curve with final compound concentrations ranging from 10 μM to 0.05 nM in a 96-well round-bottom plate before conducting the in vitro enzymatic and whole cell assays.
The routine whole cell assay for the measurement of inhibition of BACE1 activity utilizes the human neuroblastoma cell line SH-SY5Y (ATCC Accession No. CRL2266) stably expressing a human APP695Wt cDNA. Cells are routinely used up to passage number 6 and then discarded.
SH-SY5YAPP695Wt cells are plated in 96 well tissue culture plates at 5.0×10^4 cells/well in 200 μL culture media (50% MEM/EBSS and Ham's F12, 1× each sodium pyruvate, non-essential amino acids and Na bicarbonate containing 10% FBS). The following day, media is removed from the cells, fresh media added then incubated at 37° C. for 24 hours in the presence/absence of test compound at the desired concentration range.
At the end of the incubation, conditioned media are analyzed for evidence of beta-secretase activity by analysis of Abeta peptides 1-40 and 1-42 by specific sandwich ELISAs. […]

human BACE2 (1-460):Fc = target: T1, human BACE2 (1-460):Fc (Homo sapiens, UniProt Q9Y5Z0); assay: BACE2 TMEM27 FRET assay; assay type: biochemical
T1 construct: made in house; host or cells: HEK293 (transient, secreted into conditioned media, Protein A purified)
T1 sequence (Q9Y5Z0 21-460): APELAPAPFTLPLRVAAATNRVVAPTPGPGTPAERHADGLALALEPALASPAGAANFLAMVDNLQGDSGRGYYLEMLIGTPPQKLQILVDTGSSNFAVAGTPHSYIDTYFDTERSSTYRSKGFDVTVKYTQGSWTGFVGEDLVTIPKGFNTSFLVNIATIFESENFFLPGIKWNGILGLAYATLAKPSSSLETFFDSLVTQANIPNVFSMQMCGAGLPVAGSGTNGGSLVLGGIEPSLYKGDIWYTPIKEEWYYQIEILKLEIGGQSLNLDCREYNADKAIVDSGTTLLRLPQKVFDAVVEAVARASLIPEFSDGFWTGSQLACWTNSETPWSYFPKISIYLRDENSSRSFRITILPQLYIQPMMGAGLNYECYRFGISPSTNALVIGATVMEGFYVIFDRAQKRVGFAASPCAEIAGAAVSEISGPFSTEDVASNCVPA
Protocol: as §1
Human BACE1 (accession number: AF190725) and human BACE2 (accession number: AF 204944) are cloned from total brain cDNA by RT-PCR. […]
Conditioned media of HEK293 cell transiently transfected with huBACE1:Fc or huBACE2:Fc cDNA are collected. […] The purity of final product is assessed by electrophoresis in 4-20% Tris-Glycine SDS-PAGE. […]
Transmembrane protein 27 (TMEM27) (Accession Number NM_020665), also known as Collectrin) is a recently described substrate for BACE2, but not BACE1 (Esterhazy, et al, Cell Metabolism, 14, 365-377 (2011)). […] The RFU of the mixture at time 0 is recorded at excitation wavelength 430 nm and emission wavelength 535 nm. […] The RFU at the end of incubation is recorded with the same excitation and emission settings used at time 0. […]

Abeta 1-x = assay: In vivo inhibition of beta-secretase, brain Abeta 1-x in PDAPP mice; conditions: young female PDAPP mice, three hours after dosing, vs vehicle
Description: Several animal models, including mouse, guinea pig, dog, and monkey, may be used to screen for inhibition of beta-secretase activity in vivo following compound treatment. Animals used in this invention can be wild type, transgenic, or gene knockout animals. For example, the PDAPP mouse model, prepared as described in Games et al., Nature 373, 523-527 (1995), and other non-transgenic or gene knockout animals are useful to analyze in vivo inhibition of Abeta and sAPPbeta production in the presence of inhibitory compounds. Generally, 2 month old PDAPP mice, gene knockout mice or non-transgenic animals are administered compound formulated in vehicles, such as corn oil, beta-cyclodextran, phosphate buffers, PHARMASOLVE®, or other suitable vehicles via oral, subcutaneous, intra-venous, feeding, or other route of administration. One to twenty-four hours following the administration of compound, animals are sacrificed, and brains are removed for analysis of Abeta 1-x. “Abeta 1-x” as used herein refers to the sum of Abeta species that begin with residue 1 and end with a C-terminus greater than residue 28. This detects the majority of Abeta species and is often called “total Abeta”. Total Abeta peptides (Abeta 1-x) levels are measured by a sandwich ELISA, using monoclonal 266 as a capture antibody and biotinylated 3D6 as reporting antibody. (See May, et al., Journal of Neuroscience, 31, 16507-16516 (2011)).
For acute studies, compound or appropriate vehicle is administered and animals are sacrificed at about 3 hours after dosing. Brain tissue, is obtained from selected animals and analyzed for the presence of Abeta 1-x. After chronic dosing brain tissues of older APP transgenic animals may also be analyzed for the amount of beta-amyloid plaques following compound treatment.
For example, a 3, 10, and 30 mg/kg oral dose of Example 1, to young female PDAPP mice reduced Abeta 1-x peptide levels in brain hippocampus by 23% (non-significant), 43% (p<0.05), and 58% (p<0.01), respectively.

- IC50 ([1]; read-out: SH-SY5YAPP695Wt A-beta (1-40) ELISA IC50): 0.385 ± 0.163 nM
- IC50 ([1]; read-out: SH-SY5YAPP695Wt A-beta (1-42) ELISA IC50): 0.381 ± 0.266 nM
- BACE2 IC50 / BACE1 IC50 ratio (fold selectivity for BACE1 over BACE2) (human BACE2 (1-460):Fc): about 400 fold
Compound: CC(F)(F)[C@H]1OC[C@]2(c3cc(NC(=O)c4cnc(-n5cncn5)cn4)ccc3F)N=C(N)SC[C@H]12 [Example 1, N-[3-[(4aS,5S,7aS)-2-Amino-5-(1,1-difluoroethyl)-4,4a,5,7-tetrahydrofuro[3,4-d][1,3]thiazin-7a-yl]-4-fluoro-phenyl]-5-(1,2,4-triazol-1-yl)pyrazine-2-carboxamide]
- reduction of Abeta 1-x peptide levels in brain hippocampus (Abeta 1-x; 3 mg/kg oral, non-significant): 23%
- reduction of Abeta 1-x levels in brain cortical tissue (Abeta 1-x; 3 mg/kg oral, p<0.01): 43%
- reduction of Abeta 1-x levels in brain cortical tissue (Abeta 1-x; 10 mg/kg oral, p<0.01): 59%
- reduction of Abeta 1-x peptide levels in brain hippocampus (Abeta 1-x; 10 mg/kg oral, p<0.05): 43%
- reduction of Abeta 1-x levels in brain cortical tissue (Abeta 1-x; 30 mg/kg oral, p<0.01): 73%
- reduction of Abeta 1-x peptide levels in brain hippocampus (Abeta 1-x; 30 mg/kg oral, p<0.01): 58%

— patent publication US20190365774A1, “COMBINATION THERAPY OF BACE-1 INHIBITOR AND ANTI-N3PGLU ABETA ANTIBODY” (Eli Lilly and Company, priority 2016, published 2019)
